Here are results for one compound from paper PMC6112376, “Comprehensive Analyses and Prioritization of Tox21 10K Chemicals Affecting Mitochondrial Function by in-Depth Mechanistic Studies” (Environmental Health Perspectives, 2018).

As usually defined, the EC50 is the concentration at which the effect is half-maximal. In general, IC50 refers to the concentration that gives 50% inhibition.

Each structure is given as a SMILES string.

In series [1] the test system is Nrf2/ARE (ARE-bla HepG2 cells). The experiment in a line: ARE β-lactamase reporter gene assay. Conditions: 16 h incubation; mean±SD of three experiments. The format is cell-based, human. (In general: In a reporter assay the amount or activity of a reporter protein is the signal.)
Series [2] relates to HepG2 cells. The experiment in a line: ROS-Glo hydrogen peroxide (ROS) assay. The format is cell-based, human. The following applies: Homo sapiens, HepG2; 2 h treatment; mean±SD of three experiments; read-out: ROS (HepG2) EC50.
In series [3] the test system is HepG2 cells. The experiment in a line: Intracellular ATP content (cell viability) assay. Format: cell-based, human. The following applies: Homo sapiens, HepG2, 40 h treatment, mean±SD of three experiments.
A further series has as its system hNSC. The experiment in a line: MMP assay in human neural stem cells (hNSC). Conditions: Homo sapiens, Neural stem cell; 1 h treatment; fresh re-sourced stocks; mean±SD of three experiments; read-out: hNSC IC50 (MMP). The format is cell-based.
Series [4] has as its system HepG2 cells. The experiment in a line: cells. Conditions: Homo sapiens, HepG2, 1 h.
For series [5], the system named is HeLa cells expressing YFP-Parkin. The experiment in a line: Parkin translocation assay. The format is cell-based, human. The following applies: HeLa cells stably expressing YFP-Parkin; treated for 2 h.
For the next series, the system named is rat primary hepatocytes. The experiment in a line: MMP assay in rat primary hepatocytes.
Series [6] concerns Caenorhabditis elegans (Bristol N2). The experiment in a line: C. elegans larval development and growth assay. The following applies: 48 h exposure.
The test system of series [7] is p53 (p53-bla HCT-116 cells). The experiment in a line: p53 β-lactamase reporter gene assay. Format: cell-based, human. Conditions: 16 h incubation; mean±SD of three experiments.

Turning to `CCc1cc(Cc2cc(CC)cc(C(C)(C)C)c2O)c(O)c(C(C)(C)C)c1`, the “ARE (HepG2) EC50” value in [1] is given as “Inactive”. The 50% effective concentration (EC50) with HepG2 cells [2] was determined as 29.6 ± 4.08 µM. The 50% inhibitory concentration (IC50) in the series on HepG2 cells [3] (5 mM glucose, read-out: ATP (HepG2, glucose) IC50) amounted to 21.6 ± 13.8 µM; in the series with HepG2 cells [3] (10 mM galactose, read-out: ATP (HepG2, galactose) IC50) it was 29.8 ± 7.25 µM; with hNSC, 1.28 ± 0.56 µM; in the series on HepG2 cells [4] (read-out: HepG2 IC50 Galactose (MMP)) it was 6.3 ± 0.43 µM; in the series on HepG2 cells [4] (read-out: HepG2 IC50 Glucose (MMP)), 5.42 ± 0.62 µM; with rat primary hepatocytes (Rattus norvegicus, Hepatocyte, 1 h, read-out: Rat hepatocytes IC50 (MMP)), 29.9 ± 7.25 µM. Further, the Parkin recruitment entry in series [5] is given as “Inactive”. Besides, in the series on rat primary hepatocytes (% of positive control, mean±SD of three experiments), the “Rat hepatocytes (efficacy) (MMP)” value was −103±17.9%. Moreover, the “LEC (lowest effect concentration), larval growth assay” value in series [6] is not above 10 µM. Also, the “p53 (HCT-116) EC50” value in series [7] was “Inactive”.
